Laboratory results from patent publication US11046662B2, “2-aryl-4-hydroxy-1,3-thiazole derivatives useful as TRPM8-inhibitors in treatment of neuralgia, pain, COPD and asthma” (DOMPÉ FARMACEUTICI S.P.A., priority 2014, dated 2021).

Target: human TRPM8 (Homo sapiens (Human), UniProt Q7Z2W7)
Experiment: HTS cellular-based calcium assay for human TRPM8 antagonists (FLIPR TETRA)
Conditions: HEK293/hTRPM8 cells, agonist Cooling Agent 10 at EC80, Ca2+ fluorescence

Sequence of human TRPM8 (Q7Z2W7 whole entry): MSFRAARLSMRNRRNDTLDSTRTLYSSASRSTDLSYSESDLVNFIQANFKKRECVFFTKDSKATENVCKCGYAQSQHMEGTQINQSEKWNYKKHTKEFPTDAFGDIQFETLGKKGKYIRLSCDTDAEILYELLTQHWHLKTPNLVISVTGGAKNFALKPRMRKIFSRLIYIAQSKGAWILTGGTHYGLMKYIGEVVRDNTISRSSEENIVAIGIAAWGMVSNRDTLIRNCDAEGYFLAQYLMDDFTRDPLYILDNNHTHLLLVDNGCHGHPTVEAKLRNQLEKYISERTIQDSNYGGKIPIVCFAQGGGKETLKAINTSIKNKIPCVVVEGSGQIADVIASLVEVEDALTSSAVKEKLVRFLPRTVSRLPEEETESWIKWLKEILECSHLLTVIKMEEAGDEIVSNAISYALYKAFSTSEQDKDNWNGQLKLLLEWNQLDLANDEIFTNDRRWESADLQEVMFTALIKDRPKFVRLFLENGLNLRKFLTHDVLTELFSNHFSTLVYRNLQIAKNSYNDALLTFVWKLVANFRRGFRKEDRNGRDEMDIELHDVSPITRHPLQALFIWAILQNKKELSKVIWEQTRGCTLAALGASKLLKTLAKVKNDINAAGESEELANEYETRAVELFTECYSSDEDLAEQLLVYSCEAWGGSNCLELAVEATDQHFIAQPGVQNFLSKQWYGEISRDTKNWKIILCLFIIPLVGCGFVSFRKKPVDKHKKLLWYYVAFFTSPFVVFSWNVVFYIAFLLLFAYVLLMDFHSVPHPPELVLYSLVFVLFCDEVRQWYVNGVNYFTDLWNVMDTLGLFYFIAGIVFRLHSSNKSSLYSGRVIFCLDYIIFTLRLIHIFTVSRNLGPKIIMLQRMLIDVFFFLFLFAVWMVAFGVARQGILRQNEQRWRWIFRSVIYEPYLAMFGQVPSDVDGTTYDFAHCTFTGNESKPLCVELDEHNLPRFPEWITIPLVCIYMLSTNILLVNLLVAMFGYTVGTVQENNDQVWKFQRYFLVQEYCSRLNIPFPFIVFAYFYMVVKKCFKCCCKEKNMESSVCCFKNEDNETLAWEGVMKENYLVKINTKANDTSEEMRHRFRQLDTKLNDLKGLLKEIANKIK

| Compound | IC50 [nM] |
| --- | --- |
| CCC(=O)c1sc(-c2ccc(F)cc2)nc1O [Compound 36, 1-[2-(4-fluorophenyl)-4-hydroxy-1,3-thiazol-5-yl]propan-1-one] | 50 |
| CCC(=N)c1sc(-c2cccc(F)c2)nc1O [Compound 43, 2-(3-fluorophenyl)-5-propanimidoyl-1,3-thiazol-4-ol] | 1210 |
| CON(C)C(=O)c1sc(-c2ccccc2Br)nc1O [Compound 10, 2-(2-bromophenyl)-4-hydroxy-N-methoxy-N-methyl-1,3-thiazole-5-carboxamide] | 435 |
| CCC(=O)c1sc(-c2cccc(NC)c2)nc1O [Compound 34, 1-{4-hydroxy-2-[3-(methylamino)phenyl]-1,3-thiazol-5-yl}propan-1-one] | 233 |
| CCC(=O)c1sc(-c2cccnc2)nc1O [Compound 25, 1-[4-hydroxy-2-(pyridin-3-yl)-1,3-thiazol-5-yl]propan-1-one] | 356 |
| CCC(=O)c1sc(-c2cccc(C)c2)nc1O [Compound 30, 1-[4-hydroxy-2-(3-methylphenyl)-1,3-thiazol-5-yl]propan-1-one] | 231 |
| CC/C(=N\OC)c1sc(-c2cccc(F)c2)nc1O [Compound 42, 2-(3-fluorophenyl)-5-[(1E)—N-methoxypropanimidoyl]-1,3-thiazol-4-ol] | 986 |
| CCC(=O)c1sc(-c2ccccn2)nc1O [Compound 27, 1-[4-hydroxy-2-(pyridin-2-yl)-1,3-thiazol-5-yl]propan-1-one] | 145 |
| CON(C)C(=S)c1sc(-c2cccc(F)c2)nc1O [Compound 41, 2-(3-fluorophenyl)-4-hydroxy-N-methoxy-N-methyl-1,3-thiazole-5-carbothioamide] | 388 |
| CCC(=O)c1sc(-c2cccc(Br)c2)nc1O [Compound 14, 1-[2-(3-bromophenyl)-4-hydroxy-1,3-thiazol-5-yl]propan-1-one] | 1730 |
| CCC(=O)c1sc(-c2ccccc2C)nc1O [Compound 9, 1-[4-hydroxy-2-(2-methylphenyl)-1,3-thiazol-5-yl]propan-1-one] | 411 |
| CCC(=O)c1sc(-c2cccc(O)c2)nc1O [Compound 28, 1-[4-hydroxy-2-(3-hydroxyphenyl)-1,3-thiazol-5-yl]propan-1-one] | 23 |
| CCC(=O)c1sc(-c2cncn2C)nc1O [Compound 18, 1-[4-hydroxy-2-(1-methyl-1H-imidazol-5-yl)-1,3-thiazol-5-yl]propan-1-one] | 112 |
| CCC(=O)c1sc(-c2ncon2)nc1O [Compound 23, 1-[4-hydroxy-2-(1,2,4-oxadiazol-3-yl)-1,3-thiazol-5-yl]propan-1-one] | 99 |
| O=C(c1sc(-c2cccc(F)c2)nc1O)C1CC1 [Compound 45, cyclopropyl[2-(3-fluorophenyl)-4-hydroxy-1,3-thiazol-5-yl]methanone] | 287 |
| CC(C)C(=O)c1sc(-c2cccc(F)c2)nc1O [Compound 5, 1-[2-(3-fluorophenyl)-4-hydroxy-1,3-thiazol-5-yl]-2-methylpropan-1-one] | 299 |
| CCC(=O)c1sc(-c2ccc(NC)cc2)nc1O [Compound 35, 1-{4-hydroxy-2-[4-(methylamino)phenyl]-1,3-thiazol-5-yl}propan-1-one] | 789 |
| CCC(=O)c1sc(-c2ccno2)nc1O [Compound 24, 1-[4-hydroxy-2-(1,2-oxazol-5-yl)-1,3-thiazol-5-yl]propan-1-one] | 123 |
| CC(C)CC(=O)c1sc(-c2cccc(F)c2)nc1O [Compound 38, 1-[2-(3-fluorophenyl)-4-hydroxy-1,3-thiazol-5-yl]-3-methylbutan-1-one] | 331 |
| CCC(=O)c1sc(-c2ccc[nH]2)nc1O [Compound 16, 1-[4-hydroxy-2-(1H-pyrrol-2-yl)-1,3-thiazol-5-yl]propan-1-one] | 123 |
| CC(=O)c1sc(-c2cccc(F)c2)nc1O [Compound 4, 1-(2-(3-fluorophenyl)-4-hydroxythiazol-5-yl)ethanone] | 958 |

| Compound | IC50 [nM] |
| --- | --- |
| CCC(=O)c1sc(-c2ccc(O)cc2)nc1O [Compound 29, 1-[4-hydroxy-2-(4-hydroxyphenyl)-1,3-thiazol-5-yl]propan-1-one] | 326 |
| CCC(=O)c1sc(-c2cccn2C)nc1O [Compound 17, 1-[4-hydroxy-2-(1-methyl-1H-pyrrol-2-yl)-1,3-thiazol-5-yl]propan-1-one] | 323 |
| CCC(=O)c1sc(-c2ccncc2)nc1O [Compound 26, 1-[4-hydroxy-2-(pyridin-4-yl)-1,3-thiazol-5-yl]propan-1-one] | 453 |
| CCC(=O)c1sc(-c2cnc[nH]2)nc1O [Compound 19, 1-[4-hydroxy-2-(1H-imidazol-5-yl)-1,3-thiazol-5-yl]propan-1-one] | 302 |
| CC/C(=N\O)c1sc(-c2cccc(F)c2)nc1O [Compound 44, 2-(3-fluorophenyl)-5-[(1E)—N-hydroxypropanimidoyl]-1,3-thiazol-4-ol] | 1360 |
| COCC(=O)c1sc(-c2cccc(F)c2)nc1O [Compound 39, 1-[2-(3-fluorophenyl)-4-hydroxy-1,3-thiazol-5-yl]-2-methoxyethanone] | 523 |
| CON(C)C(=O)c1sc(-c2cccs2)nc1O [Compound 6, 4-hydroxy-N-methoxy-N-methyl-2-(thiophen-2-yl)-1,3-thiazole-5-carboxamide] | 156 |
| CCC(=O)c1sc(-c2cccc(N)c2)nc1O [Compound 32, 1-[2-(3-aminophenyl)-4-hydroxy-1,3-thiazol-5-yl]propan-1-one] | 450 |
| CCC(=O)c1sc(-c2cnn(C)c2)nc1O [Compound 20, 1-[4-hydroxy-2-(1-methyl-1H-pyrazol-4-yl)-1,3-thiazol-5-yl]propan-1-one] | 89 |
| CCC(=O)c1sc(-c2ccccc2O)nc1O [Compound 13, 1-[2-(2-hydroxyphenyl)-4-hydroxy-1,3-thiazol-5-yl]propan-1-one] | 112 |
| CCC(=O)c1sc(-c2cccs2)nc1O [Compound 7, 1-[4-hydroxy-2-(thiophen-2-yl)-1,3-thiazol-5-yl]propan-1-one] | 596 |
| CON(C)C(=O)c1sc(-c2ccccc2C)nc1O [Compound 8, 4-hydroxy-N-methoxy-N-methyl-2-(2-methylphenyl)-1,3-thiazole-5-carboxamide] | 86 |
| CCC(=O)c1sc(-c2ccco2)nc1O [Compound 15, 1-[2-(furan-2-yl)-4-hydroxy-1,3-thiazol-5-yl]propan-1-one] | 236 |
| CCC(=O)c1sc(-c2ccc(C)cc2)nc1O [Compound 31, 1-[4-hydroxy-2-(4-methylphenyl)-1,3-thiazol-5-yl]propan-1-one] | 236 |
| CC(C)CC(=O)c1sc(-c2cccs2)nc1O [Compound 22, 1-[4-hydroxy-2-(thiophen-2-yl)-1,3-thiazol-5-yl]-3-methylbutan-1-one] | 85 |
| CCCC(=O)c1sc(-c2cccs2)nc1O [Compound 21, 1-[4-hydroxy-2-(thiophen-2-yl)-1,3-thiazol-5-yl]butan-1-one] | 64 |
| CCC(=O)c1sc(-c2ccc(N)cc2)nc1O [Compound 33, 1-[2-(4-aminophenyl)-4-hydroxy-1,3-thiazol-5-yl]propan-1-one] | 632 |
| CCC(=O)c1sc(-c2cccc(F)c2)nc1O [Compound 1, 1-[2-(3-fluorophenyl)-4-hydroxy-1,3-thiazol-5-yl]propan-1-one] | 32 |
| CCC(=S)c1sc(-c2cccc(F)c2)nc1O [Compound 40, 1-[2-(3-fluorophenyl)-4-hydroxy-1,3-thiazol-5-yl]propane-1-thione] | 236 |
| CCC(=O)c1sc(-c2ccccc2Br)nc1O [Compound 11, 1-[2-(2-bromophenyl)-4-hydroxy-1,3-thiazol-5-yl]propan-1-one] | 912 |
